Measured values taken from patent US9016829B2, “Ink composition, ink set, and image forming method” (FUJIFILM Corporation, priority 2011, dated 2015).

Test: Solubility with respect to pure water
Assay type: physicochemical
Conditions: 25° C.

- solubility with respect to pure water: water (25° C.): 7.6 g/l)
Structure (SMILES): CC(C)(O)C(=O)c1ccc(OCCO)cc1 [IRGACURE 2959]
